Test system: Staphylococcus epidermidis
Test: Traditional culture-based antimicrobial susceptibility test
Type: cell-based
From the text: Table 1 illustrates the results of an example antimicrobial agent susceptibility test of the current application versus a traditional culture-based antimicrobial agent susceptibility test for Staphylococcus epidermidis. This specimen underwent extraction or DNA purification prior to PCR. The results of the test of the current application are similar to the results from the traditional test, with the results from the test of the current application being reportable considerably earlier than the test of the traditional test due no pathogen isolation requirement and due to less incubation time being required for the test of the current application. Result Reporting to Healthcare Providers. The results from the antimicrobial exposure are reported to the ordering healthcare provider. This information can be utilized by the healthcare provider when selecting an antimicrobial regimen for their individual patient based on these individual specimen results and patient specific factors. […] The current standard of care for antimicrobial susceptibility testing involves the growth, isolation, and exposure of pathogens to antimicrobials. This traditional culture and sensitivity process can take multiple days to obtain results, limiting the ability of healthcare providers to receive timely results to make actionable changes in patient care or management. Healthcare providers desire a method to obtain antimicrobial susceptibility results with quicker turn-around-time. This application discloses a molecular-based phenotypic antimicrobial susceptibility method which involves pathogen exposure to a panel of antimicrobial agents at their specified minimum inhibitory concentration breakpoints for sensitivity. This method allows for more timely antimicrobial susceptibility results.

## CO/N=C(\C(=O)N[C@@H]1C(=O)N2C(C(=O)[O-])=C(C[N+]3(C)CCCC3)CS[C@H]12)c1csc(N)n1 [Cefepime]
S. epidermidis isolate 1
  Traditional Culture Result: Resistant
S. epidermidis isolate 2
  Traditional Culture Result: Resistant
S. epidermidis isolate 3
  Traditional Culture Result: Resistant
S. epidermidis isolate 4
  Traditional Culture Result: Resistant
S. epidermidis isolate 5
  Traditional Culture Result: Resistant

## CN[C@H](CC(C)C)C(=O)N[C@H]1C(=O)N[C@@H](CC(N)=O)C(=O)N[C@H]2C(=O)N[C@H]3C(=O)N[C@H](C(=O)N[C@H](C(=O)O)c4cc(O)cc(O)c4-c4cc3ccc4O)[C@H](O)c3ccc(c(Cl)c3)Oc3cc2cc(c3O[C@@H]2O[C@H](CO)[C@@H](O)[C@H](O)[C@H]2O[C@H]2C[C@](C)(N)[C@H](O)[C@H](C)O2)Oc2ccc(cc2Cl)[C@H]1O [Vancomycin]
S. epidermidis isolate 1
  Traditional Culture Result: Sensitive
S. epidermidis isolate 2
  Traditional Culture Result: Sensitive
S. epidermidis isolate 3
  Traditional Culture Result: Sensitive
S. epidermidis isolate 4
  Traditional Culture Result: Sensitive
S. epidermidis isolate 5
  Traditional Culture Result: Sensitive

## Trimethoprim/Sulfamethoxazole [TMP/SMX]
S. epidermidis isolate 1
  Traditional Culture Result: Resistant
S. epidermidis isolate 2
  Traditional Culture Result: Resistant
S. epidermidis isolate 3
  Traditional Culture Result: Resistant
S. epidermidis isolate 4
  Traditional Culture Result: Resistant
S. epidermidis isolate 5
  Traditional Culture Result: Resistant
